Several values for one entry are separate records, joined by “and”; a condition that tells them apart may be missing. Identical values can stand only once. Like-named read-outs stand apart in the source and are kept apart here.
How the values were obtained:
[1] = tested on: SARS-CoV-2 NanoLuc reporter virus; assay: microbe, parasite or virus in culture; format: cell-based
[2] = 0.25 mg daily for one week, cystic fibrosis patients; cited from earlier work
native SARS-CoV-2 = settings: Vero cells; cited from earlier work
[3] = CF patients, cited from earlier work
[4] = tested on: SARS-CoV-2 Spike pseudotyped VSV(S); assay: microbe, parasite or virus in culture; format: cell-based; settings: Severe acute respiratory syndrome coronavirus 2, A549, read-out: Hill plot-based EC-50, inhibition of virus penetration
[5] = 0.50–0.60 mg injected, 12 normal subjects; cited from earlier work
[6] = cited from earlier work
[7] = 0.25 mg ouabain daily for 9 days
[8] = 0.25 mg ouabain, normal human volunteers

## C[C@]12CC[C@H](O)C[C@H]1CC[C@@H]1[C@@H]2C[C@@H](O)[C@]2(C)[C@@H](C3=CC(=O)OC3)CC[C@]12O [Digoxigenin, digoxigenin]
[1]
  inhibition of infectivity: 100%

## C[C@H]1O[C@@H](O[C@H]2[C@@H](O)C[C@H](O[C@H]3[C@@H](O)C[C@H](O[C@H]4CC[C@@]5(C)[C@H](CC[C@@H]6[C@@H]5C[C@@H](O)[C@]5(C)[C@@H](C7=CC(=O)OC7)CC[C@]65O)C4)O[C@@H]3C)O[C@@H]2C)C[C@H](O)[C@@H]1O [Digoxin, digoxin]
[2]
  adverse events: no adverse events associated with the study drug
Native SARS-CoV-2
  EC50: 43 nM
[1]
  inhibition of infectivity: 100%

## C[C@H]1O[C@@H](O[C@H]2[C@@H](O)C[C@H](O[C@H]3[C@@H](O)C[C@H](O[C@H]4CC[C@@]5(C)[C@H](CC[C@@H]6[C@@H]5CC[C@]5(C)[C@@H](C7=CC(=O)OC7)CC[C@]65O)C4)O[C@@H]3C)O[C@@H]2C)C[C@H](O)[C@@H]1O [Digitoxin, digitoxin]
[1]
  inhibition of infectivity: 100%
[3]; 0.1 mg/day by mouth, by day 28
  peak serum concentration: 10 ng/ml and 13 nM
[3]; 0.05 or 0.1 mg/day for 28 days
  adverse events: no adverse events were associated with the study drug

## C[C@@H]1O[C@@H](O[C@H]2C[C@@H](O)[C@]3(CO)[C@H]4[C@H](O)C[C@]5(C)[C@@H](C6=CC(=O)OC6)CC[C@]5(O)[C@@H]4CC[C@]3(O)C2)[C@H](O)[C@H](O)[C@H]1O [Ouabain, ouabain]
[4]
  EC50: 16 ± 1 nM
[5]
  adverse effects: No adverse effects were reported
[6]; [7]
  adverse events: No adverse events were reported
  time to plateau: 4 to 5 days
[6]; [8]
  half-life: 19 to 24 h
  peak plasma concentration: 12 ng/ml and 20 nM
Native SARS-CoV-2
  EC50: 24 nM
[1]
  inhibition of infectivity: 100%
[1]; Severe acute respiratory syndrome coronavirus 2, read-out: EC50, inhibition of infectivity
  EC50: 36 nM

## C[C@]12CC[C@H](O)C[C@H]1CC[C@@H]1[C@@H]2CC[C@]2(C)[C@@H](C3=CC(=O)OC3)CC[C@]12O [Digitoxigenin, digitoxigenin]
[1]
  inhibition of infectivity: 100%
